biological target: PLK1 (Homo sapiens, UniProt P53350); test: PLK1 Inhibition Assay I (radioactive-phosphate incorporation); type: biochemical; settings: Ki(app); PLK1 Inhibition Assay I or II (table does not say which)
Procedure, shortened: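 Ki(app) values came from non-linear regression of initial rates after background subtraction, with phosphopeptide measured by phosphocellulose filter binding and scintillation counting. PLK1 at 2 nM was preincubated with compound (typically from 10 μM, 2-fold dilutions) for 10 min, then run 240 min at 25° C with 350 μM [γ-33P]ATP and 450 μM peptide substrate in HEPES pH 7.5 buffer.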

PLK1, sequence (P53350 whole entry): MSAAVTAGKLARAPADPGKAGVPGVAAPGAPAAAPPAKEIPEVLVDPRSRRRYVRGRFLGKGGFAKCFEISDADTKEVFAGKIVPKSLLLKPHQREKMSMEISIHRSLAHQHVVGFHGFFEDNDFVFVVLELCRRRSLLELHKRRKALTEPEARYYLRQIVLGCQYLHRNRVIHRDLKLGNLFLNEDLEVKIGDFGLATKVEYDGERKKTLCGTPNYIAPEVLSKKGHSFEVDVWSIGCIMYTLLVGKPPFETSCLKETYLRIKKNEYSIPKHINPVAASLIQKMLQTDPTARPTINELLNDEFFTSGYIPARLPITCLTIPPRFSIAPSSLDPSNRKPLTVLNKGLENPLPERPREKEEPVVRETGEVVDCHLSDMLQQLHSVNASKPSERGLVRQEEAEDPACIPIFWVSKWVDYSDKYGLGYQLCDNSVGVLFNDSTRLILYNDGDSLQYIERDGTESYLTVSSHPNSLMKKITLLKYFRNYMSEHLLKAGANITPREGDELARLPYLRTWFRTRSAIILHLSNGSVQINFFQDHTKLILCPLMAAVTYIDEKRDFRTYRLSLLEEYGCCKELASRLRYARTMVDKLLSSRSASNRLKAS

Row | Structure (SMILES) | Ki [nM]
1 | COc1cc(CNc2ncc(C#N)c(-c3c[nH]c4ncc(C(F)(F)F)cc34)n2)ccc1O [Compound I-42, 2-(4-hydroxy-3-methoxybenzylamino)-4-(5-(trifluoromethyl)-1H-pyrrolo[2,3-b]pyridin-3-yl)pyrimidine-5-carbonitrile] | > 40
2 | COc1cccc(Sc2ncc(C#N)c(-c3c[nH]c4ncc(C(F)(F)F)cc34)n2)c1 [II-11, 2-(3-methoxyphenylthio)-4-(5-(trifluoromethyl)-1H-pyrrolo[2,3-b]pyridin-3-yl)pyrimidine-5-carbonitrile] | > 40
3 | C[C@@H](Nc1ncc(C#N)c(-c2c[nH]c3ncc(C(F)(F)F)cc23)n1)c1ccc(N(C)C)cc1 [Compound I-133, 2-((R)-1-(4-(dimethylamino)phenyl)ethylamino)-4-(5-(trifluoromethyl)-1H-pyrrolo[2,3-b]pyridin-3-yl)pyrimidine-5-carbonitrile] | < 3
4 | CC(C)N1CCN(c2ccc([C@@H](C)Nc3ncc(C#N)c(-c4c[nH]c5ncc(C(F)(F)F)cc45)n3)cc2)CC1 [Compound I-140, 2-((R)-1-(4-(4-isopropylpiperazin-1-yl)phenyl)ethylamino)-4-(5-(trifluoromethyl)-1H-pyrrolo[2,3-b]pyridin-3-yl)pyrimidine-5-carbonitrile] | < 3
5 | C[C@@H](Nc1ncc(C#N)c(-c2c[nH]c3ncc(C(F)(F)F)cc23)n1)C1CCN(C(=O)C2(O)CC2)CC1 [Compound I-220, 2-((R)-1-(1-(1-hydroxycyclopropanecarbonyl)piperidin-4-yl)ethylamino)-4-(5-(trifluoromethyl)-1H-pyrrolo[2,3-b]pyridin-3-yl)pyrimidine-5-carbonitrile] | < 3
6 | Cc1ccc(S(=O)(=O)N2CCC(C(C)Nc3ncc(C#N)c(-c4c[nH]c5ncc(C(F)(F)F)cc45)n3)CC2)cc1 (stereo not drawn) [Compound I-165, 2-(1-(1-tosylpiperidin-4-yl)ethylamino)-4-(5-(trifluoromethyl)-1H-pyrrolo[2,3-b]pyridin-3-yl)pyrimidine-5-carbonitrile] | 3 to 40
7 | N#Cc1cnc(NCc2ccc(Cl)cc2)nc1-c1c[nH]c2ncc(C(F)(F)F)cc12 [Compound I-19, 2-(4-chlorobenzylamino)-4-(5-(trifluoromethyl)-1H-pyrrolo[2,3-b]pyridin-3-yl)pyrimidine-5-carbonitrile] | > 40
8 | N#Cc1cnc(NCc2cc(F)cc(F)c2)nc1-c1c[nH]c2ncc(C(F)(F)F)cc12 [Compound I-48, 2-(3,5-difluorobenzylamino)-4-(5-(trifluoromethyl)-1H-pyrrolo[2,3-b]pyridin-3-yl)pyrimidine-5-carbonitrile] | > 40
9 | N#Cc1cnc(NCc2cccc(Cl)c2)nc1-c1c[nH]c2ncc(C(F)(F)F)cc12 [Compound I-13, 2-(3-chlorobenzylamino)-4-(5-(trifluoromethyl)-1H-pyrrolo[2,3-b]pyridin-3-yl)pyrimidine-5-carbonitrile] | > 40
10 | CC(C)[C@@H](N)CC(=O)N1CCC([C@@H](C)Nc2ncc(C#N)c(-c3c[nH]c4ncc(C(F)(F)F)cc34)n2)CC1 [Compound I-247, 2-((R)-1-(1-((S)-3-amino-4-methylpentanoyl)piperidin-4-yl)ethylamino)-4-(5-(trifluoromethyl)-1H-pyrrolo[2,3-b]pyridin-3-yl)pyrimidine-5-carbonitrile] | < 3
11 | CC(Nc1ncc(C#N)c(-c2c[nH]c3ncc(C(F)(F)F)cc23)n1)C1CN(C(=O)[C@@H](C)O)C1 (stereo partly drawn) [Compound I-222, 2-(1-(1-((R)-2-hydroxypropanoyl)azetidin-3-yl)ethylamino)-4-(5-(trifluoromethyl)-1H-pyrrolo[2,3-b]pyridin-3-yl)pyrimidine-5-carbonitrile] | < 3
12 | CCOc1ccc(C(C)Nc2ncc(C#N)c(-c3c[nH]c4ncc(C(F)(F)F)cc34)n2)cc1 (stereo not drawn) [Compound I-112, 2-(1-(4-ethoxyphenyl)ethylamino)-4-(5-(trifluoromethyl)-1H-pyrrolo[2,3-b]pyridin-3-yl)pyrimidine-5-carbonitrile] | < 3
13 | C[C@@H](Nc1ncc(C#N)c(-c2c[nH]c3ncc(C(F)(F)F)cc23)n1)[C@H]1CC[C@@H](NC(=O)CO)CC1 [Compound I-212, N-((1S,4s)-4-((1R)-1-(5-cyano-4-(5-(trifluoromethyl)-1H-pyrrolo[2,3-b]pyridin-3-yl)pyrimidin-2-ylamino)ethyl)cyclohexyl)-2-hydroxyacetamide] | < 3
14 | CCNC(=O)c1ccc([C@@H](C)Nc2ncc(C#N)c(-c3c[nH]c4ncc(C(F)(F)F)cc34)n2)cc1 [Compound I-170, 4-((1R)-1-(5-cyano-4-(5-(trifluoromethyl)-1H-pyrrolo[2,3-b]pyridin-3-yl)pyrimidin-2-ylamino)ethyl)-N-ethylbenzamide] | < 3
15 | C[C@@H](Nc1ncc(C#N)c(-c2c[nH]c3ncc(C(F)(F)F)cc23)n1)C1CCN(C(=O)CN)CC1 [Compound I-210, 2-((R)-1-(1-(2-aminoacetyl)piperidin-4-yl)ethylamino)-4-(5-(trifluoromethyl)-1H-pyrrolo[2,3-b]pyridin-3-yl)pyrimidine-5-carbonitrile] | < 3
16 | C[C@@H](Nc1ncc(C#N)c(-c2c[nH]c3ncc(C(F)(F)F)cc23)n1)C1CCN(C(=O)[C@@H](N)CCCN)CC1 [Compound I-254, 2-((R)-1-(1-((S)-2,5-diaminopentanoyl)piperidin-4-yl)ethylamino)-4-(5-(trifluoromethyl)-1H-pyrrolo[2,3-b]pyridin-3-yl)pyrimidine-5-carbonitrile] | < 3
17 | CCC(Nc1ncc(C#N)c(-c2c[nH]c3ncc(C(F)(F)F)cc23)n1)C1CCN(CC#N)CC1 (stereo not drawn) [Compound I-173, 2-(1-(1-(cyanomethyl)piperidin-4-yl)propylamino)-4-(5-(trifluoromethyl)-1H-pyrrolo[2,3-b]pyridin-3-yl)pyrimidine-5-carbonitrile] | < 3
18 | CC(Nc1ncc(C#N)c(-c2c[nH]c3ncc(C(F)(F)F)cc23)n1)c1cccnc1 (stereo not drawn) [Compound I-51, 2-(1-(pyridin-3-yl)ethylamino)-4-(5-(trifluoromethyl)-1H-pyrrolo[2,3-b]pyridin-3-yl)pyrimidine-5-carbonitrile] | < 3
19 | N#Cc1cnc(NCCC2CCCCN2)nc1-c1c[nH]c2ncc(C(F)(F)F)cc12 (stereo not drawn) [Compound I-68, 2-(2-(piperidin-2-yl)ethylamino)-4-(5-(trifluoromethyl)-1H-pyrrolo[2,3-b]pyridin-3-yl)pyrimidine-5-carbonitrile] | > 40
20 | CC(Nc1ncc(C#N)c(-c2c[nH]c3ncc(C(F)(F)F)cc23)n1)c1ccc(N2CCC(O)(C(C)C)CC2)nc1 (stereo not drawn) [Compound I-198, 2-(1-(6-(4-hydroxy-4-isopropylpiperidin-1-yl)pyridin-3-yl)ethylamino)-4-(5-(trifluoromethyl)-1H-pyrrolo[2,3-b]pyridin-3-yl)pyrimidine-5-carbonitrile] | 3 to 40
21 | C[C@@H](Nc1ncc(C#N)c(-c2c[nH]c3ncc(C(F)(F)F)cc23)n1)C1CCN(C(=O)[C@H]2C[C@H](O)CN2)CC1 [Compound I-263, 2-((R)-1-(1-((2R,4S)-4-hydroxypyrrolidine-2-carbonyl)piperidin-4-yl)ethylamino)-4-(5-(trifluoromethyl)-1H-pyrrolo[2,3-b]pyridin-3-yl)pyrimidine-5-carbonitrile] | < 3
22 | C[C@@H](Nc1ncc(C#N)c(-c2c[nH]c3ncc(C(F)(F)F)cc23)n1)C1CCN(C(=O)C2CNC2)CC1 [Compound I-227, 2-((R)-1-(1-(azetidine-3-carbonyl)piperidin-4-yl)ethylamino)-4-(5-(trifluoromethyl)-1H-pyrrolo[2,3-b]pyridin-3-yl)pyrimidine-5-carbonitrile] | < 3
23 | C[C@H](O)[C@@H](N)C(=O)N1CCC([C@@H](C)Nc2ncc(C#N)c(-c3c[nH]c4ncc(C(F)(F)F)cc34)n2)CC1 [Compound I-249, 2-((R)-1-(1-((2R,3S)-2-amino-3-hydroxybutanoyl)piperidin-4-yl)ethylamino)-4-(5-(trifluoromethyl)-1H-pyrrolo[2,3-b]pyridin-3-yl)pyrimidine-5-carbonitrile] | < 3
24 | N#Cc1cnc(NC2CCCC2)nc1-c1c[nH]c2ncc(C(F)(F)F)cc12 [Compound I-73, 2-(cyclopentylamino)-4-(5-(trifluoromethyl)-1H-pyrrolo[2,3-b]pyridin-3-yl)pyrimidine-5-carbonitrile] | 3 to 40
25 | CC(Nc1ncc(C#N)c(-c2c[nH]c3ncc(C(F)(F)F)cc23)n1)C1(F)CCN(CC#N)CC1 (stereo not drawn) [Compound I-238, 2-(1-(1-(cyanomethyl)-4-fluoropiperidin-4-yl)ethylamino)-4-(5-(trifluoromethyl)-1H-pyrrolo[2,3-b]pyridin-3-yl)pyrimidine-5-carbonitrile] | < 3
26 | N#Cc1cnc(NCc2ccccc2Cl)nc1-c1c[nH]c2ncc(C(F)(F)F)cc12 [Compound I-17, 2-(2-chlorobenzylamino)-4-(5-(trifluoromethyl)-1H-pyrrolo[2,3-b]pyridin-3-yl)pyrimidine-5-carbonitrile] | > 40
27 | COc1ncc([C@@H](C)Nc2ncc(C#N)c(-c3c[nH]c4ncc(C(F)(F)F)cc34)n2)cn1 [Compound I-303, 2-(I-1-(2-methoxypyrimidin-5-yl)ethylamino)-4-(5-(trifluoromethyl)-1H-pyrrolo[2,3-b]pyridin-3-yl)pyrimidine-5-carbonitrile] | < 3
28 | N#Cc1cnc(Sc2ccc(Cl)cc2)nc1-c1c[nH]c2ncc(C(F)(F)F)cc12 [II-2, 2-(4-chlorophenylthio)-4-(5-(trifluoromethyl)-1H-pyrrolo[2,3-b]pyridin-3-yl)pyrimidine-5-carbonitrile] | > 40
29 | CC(C)NC(=O)c1ccc([C@@H](C)Nc2ncc(C#N)c(-c3c[nH]c4ncc(C(F)(F)F)cc34)n2)cc1 [Compound I-172, 4-((1R)-1-(5-cyano-4-(5-(trifluoromethyl)-1H-pyrrolo[2,3-b]pyridin-3-yl)pyrimidin-2-ylamino)ethyl)-N-isopropylbenzamide] | 3 to 40
30 | CC(C)(Nc1ncc(C#N)c(-c2c[nH]c3ncc(Cl)cc23)n1)C(=O)NCCC(F)(F)F | > 40

Reference: US8530489B2 (Vertex Pharmaceuticals Incorporated, priority 2006, dated 2013)
